# Measured values: US10377770B2 (Novartis AG, priority 2015, dated 2019)
# pIC50: −log10 of the molar value.
# Biological target: C-Raf FL (full length CRAF with Y340E and Y341E activating mutations, co-expressed with h14-3-3 zeta) (Homo sapiens (Human), UniProt P04049, Y340E/Y341E)
# Assay: In vitro Raf activity determination, AlphaScreen p-MEK readout, c-Raf (C-Raf FL)
# Type: biochemical
# Details: c-Raf approximately 4 nM, ATP 1 μM, pre-incubation 60 minutes, reaction 1 hour
# Excerpt: Sf9 cells co-expressing both proteins were lysed and subjected to immobilized nickel chromatography and eluted with Imidazole. A second column (StrepII binding column) was used and eluted with desthiobiotin. Protein Tags were removed using Prescission enzyme and the protein was further purified using a flowthrough step to remove tags.
# C-Raf TR refers to a truncated C-Raf protein, a Δ1-324 deletion mutant. C-Raf FL refers to the full-length C-Raf protein.
# Full length MEK1 with an inactivating K97R ATP binding site mutation is utilized as a RAF substrate. The MEK1 cDNA was subcloned with an N-terminal (his)6 tag into a vector for E. Coli expression. The MEK1 substrate was purified from E. Coli lysate by nickel affinity chromatography followed by anion exchange. The final MEK1 preparation was biotinylated (Pierce EZ-Link Sulfo-NHS-LC-Biotin) and concentrated.
# Assay Materials: Assay buffer is 50 mM Tris, pH 7.5, 15 mM MgCl2, 0.01% Bovine Serum Albumin (BSA) and 1 mM dithiothreitol (DTT); Stop buffer is 60 mM ethylenediaminetetraacetic acid (EDTA) and 0.01% Tween® 20; b-Raf (V600E), active; biotinylated Mek, kinase dead; Alpha Screen detection kit (available from PerkinElmer™, #6760617R); Anti phospho-MEK1/2 (available from Cell Signaling Technology, Inc. #9121); 384 well low volume assay plates (White Greiner® plates).
# Assay conditions: b-Raf (V600E) approximately 4 pM; c-Raf approximately 4 nM; biotinylated Mek, kinase dead approximately 10 nM; ATP 10 μM for BRAF (V600E) and 1 μM for CRAF; Pre-incubation time with compounds 60 minutes at room temperature; Reaction time 1 or 3 hours at room temperature.
# Assay protocol: Raf and biotinylated Mek (kinase dead) were combined at 2× final concentrations in assay buffer (50 mM Tris, pH 7.5, 15 mM MgCl2, 0.01% BSA and 1 mM DTT) and dispensed […] per well in assay plates (Greiner white 384 well assay plates #781207) containing […] of 40× of a Raf kinase inhibitor test compound diluted in 100% DMSO. The plate was incubated for 60 minutes at room temperature. The Raf kinase activity reaction was started by the addition of […] per well of 2×ATP diluted in assay buffer. After 3 hours (b-Raf(V600E)) or 1 hour (c-Raf). The reactions were stopped and the phosphorylated product was measured using a rabbit anti-p-MEK (Cell Signaling, #9121) antibody and the Alpha Screen IgG (ProteinA) detection Kit (PerkinElmer #6760617R), by the addition of […] to the well of a mixture of the antibody (1:2000 dilution) and detection beads (1:2000 dilution of both beads) in Stop/bead buffer (25 mM EDTA, 50 mM Tris, pH 7.5, 0.01% Tween20). The additions were carried out under dark conditions to protect the detection beads from light. A lid was placed on top of the plate and incubated for 1 hour at room temperature, after which the luminescence was read on a PerkinElmer Envision instrument.
# Sequence of C-Raf FL (full length CRAF with Y340E and Y341E activating mutations, co-expressed with h14-3-3 zeta) (P04049 whole entry Y340E/Y341E): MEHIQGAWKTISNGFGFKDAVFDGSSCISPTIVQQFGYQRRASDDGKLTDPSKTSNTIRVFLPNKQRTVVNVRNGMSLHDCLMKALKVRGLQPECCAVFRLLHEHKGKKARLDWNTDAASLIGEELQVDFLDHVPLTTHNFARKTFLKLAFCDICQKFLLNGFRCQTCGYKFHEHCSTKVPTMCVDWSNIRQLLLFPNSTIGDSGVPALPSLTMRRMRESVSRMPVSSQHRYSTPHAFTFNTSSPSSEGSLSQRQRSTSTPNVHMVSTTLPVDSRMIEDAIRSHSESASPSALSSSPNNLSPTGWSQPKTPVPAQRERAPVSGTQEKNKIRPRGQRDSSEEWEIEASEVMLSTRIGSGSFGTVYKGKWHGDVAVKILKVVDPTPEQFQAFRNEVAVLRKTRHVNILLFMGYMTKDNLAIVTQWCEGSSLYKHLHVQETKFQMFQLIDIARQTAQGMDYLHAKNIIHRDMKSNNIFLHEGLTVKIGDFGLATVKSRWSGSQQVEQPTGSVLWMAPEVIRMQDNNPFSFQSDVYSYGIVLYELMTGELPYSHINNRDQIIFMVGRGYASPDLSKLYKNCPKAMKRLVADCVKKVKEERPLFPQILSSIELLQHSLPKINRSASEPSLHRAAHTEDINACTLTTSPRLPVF
# Sequence of C-Raf FL (full length CRAF with Y340E and Y341E activating mutations, co-expressed with h14-3-3 zeta) (P63104 whole entry partner): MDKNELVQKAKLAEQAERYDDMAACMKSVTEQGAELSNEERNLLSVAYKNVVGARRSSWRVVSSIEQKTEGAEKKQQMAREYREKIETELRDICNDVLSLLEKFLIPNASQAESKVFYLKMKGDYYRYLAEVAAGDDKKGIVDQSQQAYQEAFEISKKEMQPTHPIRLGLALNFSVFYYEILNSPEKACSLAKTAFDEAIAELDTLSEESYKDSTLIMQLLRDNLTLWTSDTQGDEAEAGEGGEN
row,Compound,pIC50
1,"Cc1ccc(NC(=O)c2ccnc(C(F)(F)F)c2)cc1-c1ccc2c(c1)N1CCOC[C@H]1C[C@H]2O (racemic) [Example 3, (rac)-(trans)-N-(3-(6-hydroxy-1,2,4,4a,5,6-hexahydro-[1,4]oxazino[4,3-a]quinolin-9-yl)-4-methylphenyl)-2-(trifluoromethyl)isonicotinamide]",10.51
2,"Cc1ccc(NC(=O)c2ccnc(C(C)(F)F)c2)cc1-c1ccc2c(c1)N1CCOCC1CC2O (racemic) [Example 6, (rac)-2-(1,1-difluoroethyl)-N-(3-(6-hydroxy-1,2,4,4a,5,6-hexahydro-[1,4]oxazino[4,3-a]quinolin-9-yl)-4-methylphenyl)isonicotinamide]",10.12
3,"Cc1ccc(NC(=O)c2ccnc(C(C)(C)F)c2)cc1-c1ccc2c(c1)N1CCOCC1CC2O (racemic) [Example 7, (rac)-2-(2-fluoropropan-2-yl)-N-(3-(6-hydroxy-1,2,4,4a,5,6-hexahydro-[1,4]oxazino[4,3-a]quinolin-9-yl)-4-methylphenyl)isonicotinamide]",10.48
4,"Cc1ccc(NC(=O)c2ccnc(C(C)(C)C#N)c2)cc1-c1ccc2c(c1)N1CCOCC1CC2O (racemic) [Example 8, (rac)-2-(2-cyanopropan-2-yl)-N-(3-(6-hydroxy-1,2,4,4a,5,6-hexahydro-[1,4]oxazino[4,3-a]quinolin-9-yl)-4-methylphenyl)isonicotinamide]",9.72
5,"Cc1ncc(NC(=O)c2cccc(C(F)(F)F)c2)cc1-c1ccc2c(c1)N1CCOCC1CC2O (racemic) [Example 9, (rac)-N-(5-(6-hydroxy-1,2,4,4a,5,6-hexahydro-[1,4]oxazino[4,3-a]quinolin-9-yl)-6-methylpyridin-3-yl)-3-(trifluoromethyl)benzamide]",10.29
6,"Cc1ccc(NC(=O)c2cnnc(C(F)(F)F)c2)cc1-c1ccc2c(c1)N1CCOCC1CC2O (racemic) [Example 10, (rac)-N-(3-(6-hydroxy-1,2,4,4a,5,6-hexahydro-[1,4]oxazino[4,3-a]quinolin-9-yl)-4-methylphenyl)-6-(trifluoromethyl)pyridazine-4-carboxamide]",10.44
7,"Cc1ncc(NC(=O)c2ccnc(C(C)(F)F)c2)cc1-c1ccc2c(c1)N1CCOCC1CC2O (racemic) [Example 11, (rac)-2-(1,1-difluoroethyl)-N-(5-(6-hydroxy-1,2,4,4a,5,6-hexahydro-[1,4]oxazino[4,3-a]quinolin-9-yl)-6-methylpyridin-3-yl)isonicotinamide]",11.01
8,"Cc1ccc(NC(=O)c2ccnc(C(C)(F)F)c2)cc1-c1ccc2c(c1)N1CCOCC1CC2O (racemic) [Example 16, (rac)-2-(1,1-difluoroethyl)-N-(3-(6-hydroxy-1,2,4,4a,5,6-hexahydro-[1,4]oxazino[4,3-a]quinolin-9-yl)-4-methylphenyl)isonicotinamide]",10.26
9,"Cc1ccc(NC(=O)c2ccnc(C(C)(C)F)c2)cc1-c1ccc2c(c1)N1CCOCC1CC2O (racemic) [Example 17, (rac)-2-(2-fluoropropan-2-yl)-N-(3-(6-hydroxy-1,2,4,4a,5,6-hexahydro-[1,4]oxazino[4,3-a]quinolin-9-yl)-4-methylphenyl)isonicotinamide]",10.34
10,"Cc1ccc(NC(=O)c2ccnc(C(F)(F)F)c2)cc1-c1ccc2c(c1)N1CCOCC1CC2 (racemic) [Example 21, (rac)-N-(3-(1,2,4,4a,5,6-hexahydro-[1,4]oxazino[4,3-a]quinolin-9-yl)-4-methylphenyl)-2-(trifluoromethyl)isonicotinamide]",11.92
11,"Cc1ccc(NC(=O)c2ccnc(C(F)(F)F)c2)cc1-c1ccc2c(c1)N1CCOCC1CC2(C)O (racemic) [Example 22, (rac)-N-(3-(6-hydroxy-6-methyl-1,2,4,4a,5,6-hexahydro-[1,4]oxazino[4,3-a]quinolin-9-yl)-4-methylphenyl)-2-(trifluoromethyl)isonicotinamide]",9.64
12,Cc1ccc(NC(=O)c2ccnc(C(C)(F)F)c2)cc1-c1ccc2c(c1)N1CCOCC1CC2(C)O (racemic) [Example 23],10.34
13,Cc1ccc(NC(=O)c2ccnc(C(C)(F)F)c2)cc1-c1ccc2c(c1)N1CCOC[C@]1(C)C[C@H]2O (racemic) [Example 27],10.77
14,"Cc1ccc(NC(=O)c2ccnc(C(F)(F)F)c2)cc1-c1ccc2c(c1)N1CCOCC1CC2N (racemic) [Example 28, (rac)-N-(3-(6-amino-1,2,4,4a,5,6-hexahydro-[1,4]oxazino[4,3-a]quinolin-9-yl)-4-methylphenyl)-2-(trifluoromethyl)isonicotinamide]",10.23
15,"CC(=O)NC1CC2COCCN2c2cc(-c3cc(NC(=O)c4ccnc(C(F)(F)F)c4)ccc3C)ccc21 (racemic) [Example 29, N-(3-(6-acetamido-1,2,4,4a,5,6-hexahydro-[1,4]oxazino[4,3-a]quinolin-9-yl)-4-methylphenyl)-2-(trifluoromethyl)isonicotinamide]",9.77
16,"CO[C@@H]1C[C@@H]2COCCN2c2cc(-c3cc(NC(=O)c4ccnc(C(F)(F)F)c4)ccc3C)ccc21 (racemic) [Example 30, (rac)-(trans)-N-(3-(6-methoxy-1,2,4,4a,5,6-hexahydro-[1,4]oxazino[4,3-a]quinolin-9-yl)-4-methylphenyl)-2-(trifluoromethyl)isonicotinamide]",9.74
17,"CO[C@@H]1C[C@@H]2COCCN2c2cc(-c3cc(NC(=O)c4ccnc(C(C)(F)F)c4)cnc3C)ccc21 (racemic) [Example 31, (rac)-(trans)-2-(1,1-difluoroethyl)-N-(5-(6-methoxy-1,2,4,4a,5,6-hexahydro-[1,4]oxazino[4,3-a]quinolin-9-yl)-6-methylpyridin-3-yl)isonicotinamide]",10.48
18,"CO[C@@H]1C[C@@H]2COCCN2c2cc(-c3cc(NC(=O)c4cccc(C(F)(F)F)c4)cnc3C)ccc21 (racemic) [Example 32, (rac)-(trans)-N-(5-(6-methoxy-1,2,4,4a,5,6-hexahydro-[1,4]oxazino[4,3-a]quinolin-9-yl)-6-methylpyridin-3-yl)-3-(trifluoromethyl)benzamide]",10.64
19,COC1CC2COCCN2c2cc(-c3cc(NC(=O)c4ccnc(C(F)(F)F)c4)ccc3C)cnc21 (racemic) [Example 34],11.06
20,"Cc1ccc(NC(=O)c2ccnc(C(F)(F)F)c2)cc1-c1cnc2c(c1)N1CCOC[C@H]1C[C@@H]2O (racemic) [Example 37, (rac)-(cis)-N-(3-(6-hydroxy-1,2,4,4a,5,6-hexahydro-[1,4]oxazino[4,3-a][1,5]naphthyridin-9-yl)-4-methylphenyl)-2-(trifluoromethyl)isonicotinamide]",11.09
21,"Cc1ncc(NC(=O)c2cccc(C(F)(F)F)c2)cc1-c1cnc2c(c1)N1CCOC[C@H]1C[C@@H]2O (racemic) [Example 38, (rac)-(cis)-N-(5-(6-hydroxy-1,2,4,4a,5,6-hexahydro-[1,4]oxazino[4,3-a][1,5]naphthyridin-9-yl)-6-methylpyridin-3-yl)-3-(trifluoro-methyl)benzamide]",10.52
22,"Cc1ccc(NC(=O)c2ccnc(C(F)(F)F)c2)cc1-c1cnc2c(c1)N1CCOC[C@H]1C[C@@]2(C)O (racemic) [Example 39, (rac)-(trans)-N-(3-(6-hydroxy-6-methyl-1,2,4,4a,5,6-hexahydro-[1,4]oxazino[4,3-a][1,5]naphthyridin-9-yl)-4-methylphenyl)-2-(trifluoromethyl)isonicotinamide]",11.64
23,"Cc1ccc(NC(=O)c2ccnc(C(F)(F)F)c2)cc1-c1cnc2c(c1)N1CCOC[C@H]1C[C@]2(C)O (racemic) [Example 40, (rac)-(cis)-N-(3-(6-hydroxy-6-methyl-1,2,4,4a,5,6-hexahydro-[1,4]oxazino[4,3-a][1,5]naphthyridin-9-yl)-4-methylphenyl)-2-(trifluoromethyl)isonicotinamide]",10.18
